Values of other authors in patent publication US20090012101A1, “Mucarinic Agonists and Methods of Use Thereof” (UNIVERSITY OF TOLEDO, priority 2005, published 2009).

Key:
M2 receptors = target: T1, M2 receptors (Homo sapiens, UniProt P08172)
T1 sequence (P08172 1-466): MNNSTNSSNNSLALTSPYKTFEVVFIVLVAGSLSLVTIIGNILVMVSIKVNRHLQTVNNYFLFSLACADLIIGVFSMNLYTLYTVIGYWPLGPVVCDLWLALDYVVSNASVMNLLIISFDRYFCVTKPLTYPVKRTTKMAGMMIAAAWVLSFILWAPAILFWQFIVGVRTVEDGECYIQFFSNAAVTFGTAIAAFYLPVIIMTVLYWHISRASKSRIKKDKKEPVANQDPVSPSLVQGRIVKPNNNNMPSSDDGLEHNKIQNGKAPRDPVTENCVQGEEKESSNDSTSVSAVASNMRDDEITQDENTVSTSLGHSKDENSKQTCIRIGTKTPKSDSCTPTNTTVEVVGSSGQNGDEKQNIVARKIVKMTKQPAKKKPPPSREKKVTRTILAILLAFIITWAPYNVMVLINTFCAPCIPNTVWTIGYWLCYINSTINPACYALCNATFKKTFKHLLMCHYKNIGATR

M4 receptors = target: T2, M4 receptors (Homo sapiens, UniProt P08173)
T2 sequence (P08173 1-479): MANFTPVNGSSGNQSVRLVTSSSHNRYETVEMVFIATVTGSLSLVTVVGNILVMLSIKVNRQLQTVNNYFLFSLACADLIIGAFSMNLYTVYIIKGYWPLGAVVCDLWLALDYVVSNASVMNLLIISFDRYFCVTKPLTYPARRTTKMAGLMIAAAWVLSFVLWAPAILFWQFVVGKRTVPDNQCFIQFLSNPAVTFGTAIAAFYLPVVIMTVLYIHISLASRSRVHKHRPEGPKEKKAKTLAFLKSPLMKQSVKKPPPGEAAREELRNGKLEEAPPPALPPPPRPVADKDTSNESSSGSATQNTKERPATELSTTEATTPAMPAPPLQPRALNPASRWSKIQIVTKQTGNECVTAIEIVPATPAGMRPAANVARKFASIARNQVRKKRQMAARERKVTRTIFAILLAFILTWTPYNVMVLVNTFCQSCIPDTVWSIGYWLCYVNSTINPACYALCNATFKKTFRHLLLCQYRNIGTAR

[1] = preclinical studies

Row | SMILES | unwanted side effects associated with activation of M3 receptors | effect on psychiatric symptoms such as hallucinations (phase II clinical trials, Alzheimer's patients) | agonist activity at M2 receptors (M2 receptors) | agonist activity at M4 receptors (M4 receptors) | antipsychotic activity [1]
1 | CCCCCCOc1nsnc1C1=CCCN(C)C1 [xanomeline] | salivation, diarrhea and profuse sweating | significantly improved psychiatric symptoms | – | – | –
2 | CCCCSc1nsnc1[C@H]1CN2CCC[C@H]1C2 [BuTAC, (5R,6R)-6-(3-butylthio-1,2,5-thiadiazol-4-yl)-1-azabicyclo[3.2.1]octane] | – | – | partial agonist activity | partial agonist activity | strong antipsychotic activity
